Laboratory results from patent US9018258B2, “Substituted 1-benzylcycloalkylcarboxylic acids and the use thereof” (Bayer Intellectual Property GmbH, priority 2010, dated 2015).

Experiments:
saphenous artery = assay: Vasorelaxant effect in vitro (phenylephrine-contracted saphenous artery rings); set-up: species or system Rabbits; details: Oryctolagus cuniculus; rabbit saphenous artery rings, phenylephrine-induced contraction
Procedure: Rabbits are anaesthetized and sacrificed by intravenous injection of thiopental sodium (about 50 mg/kg) and exsanguinated. The saphenous artery is removed and divided into rings 3 mm wide. the rings are mounted singly on in each case a pair of triangular hooks open at the end and made of 0.3 mm-thick special wire (Remanium®). Each ring is placed under an initial tension in 5 ml organ baths with Krebs-Henseleit solution which is at 37° C., is gassed with carbogen and has the following composition: NaCl 119 mM; KCl 4.8 mM; CaCl2×2 H2O 1 mM; MgSO4×7 H2O 1.4 mM; KH2PO4 1.2 mM; NaHCO3 25 mM; glucose 10 mM; bovine serum albumin 0.001%. The force of contraction is detected with Statham UC2 cells, amplified and digitized via A/D converters (DAS-1802 HC, Keithley Instruments, Munich) and recorded in parallel on chart recorders. Contractions are induced by addition of phenylephrine.
After several (generally 4) control cycles, the substance to be investigated is added in each further run in increasing dosage, and the level of the contraction achieved under the influence of the test substance is compared with the level of the contraction reached in the last preceding run. The concentration necessary to reduce the contraction reached in the preceding control by 50% is calculated from this (IC50). The standard application volume is 5 μl. The proportion of DMSO in the bath solution corresponds to 0.1%.

GAL4-PPARα = biological target: T1, GAL4-PPARα (Homo sapiens, UniProt Q07869); assay: Cellular PPAR transactivation assay, GAL4-PPARα chimera in CHO-K1 cells; format: cell-based; details: for Emax: CHO-K1, maximum effect relative to reference compound (Example 73 of EP 1 452 521-A1 = 100%), read-out: PPARα efficacy; for EC50: CHO-K1 cells, luciferase reporter, 6 h stimulation
T1 construct: expressed in transfected cells
T1 sequence (Q07869 167-468): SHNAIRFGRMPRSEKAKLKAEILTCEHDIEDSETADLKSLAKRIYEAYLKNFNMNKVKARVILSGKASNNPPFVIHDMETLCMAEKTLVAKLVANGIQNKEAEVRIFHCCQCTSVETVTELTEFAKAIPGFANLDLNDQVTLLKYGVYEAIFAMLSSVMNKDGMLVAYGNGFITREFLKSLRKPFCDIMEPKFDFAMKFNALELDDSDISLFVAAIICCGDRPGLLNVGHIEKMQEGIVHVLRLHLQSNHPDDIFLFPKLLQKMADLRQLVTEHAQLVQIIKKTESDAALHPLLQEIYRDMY
In short: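 CHO-K1 cells stably expressing GAL4 DNA-binding domain fused to the human PPAR ligand-binding domain (α aa 167-468, γ aa 203-506, δ aa 138-442) plus a GAL4-driven firefly luciferase reporter. Compounds added in serum-free medium for 6 h; EC50 from luminescence curves. Efficacy in % of a pan-PPAR agonist reference set as 100%.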

sGC = biological target: T2, sGC (Rattus norvegicus, UniProt P20595); assay: Action at a recombinant guanylate cyclase reporter cell line (CHO reporter cell); format: cell-based; details: CHO reporter cell in vitro
T2 construct: expressed in transfected cells; host or cells: CHO reporter cell
Procedure: The cellular action of the compounds according to the invention is determined at a recombinant guanylate cyclase reporter cell line, as described in F. Wunder et al., Anal. Biochem. 339, 104-112 (2005).

T2 sequence (P19686 whole entry partner): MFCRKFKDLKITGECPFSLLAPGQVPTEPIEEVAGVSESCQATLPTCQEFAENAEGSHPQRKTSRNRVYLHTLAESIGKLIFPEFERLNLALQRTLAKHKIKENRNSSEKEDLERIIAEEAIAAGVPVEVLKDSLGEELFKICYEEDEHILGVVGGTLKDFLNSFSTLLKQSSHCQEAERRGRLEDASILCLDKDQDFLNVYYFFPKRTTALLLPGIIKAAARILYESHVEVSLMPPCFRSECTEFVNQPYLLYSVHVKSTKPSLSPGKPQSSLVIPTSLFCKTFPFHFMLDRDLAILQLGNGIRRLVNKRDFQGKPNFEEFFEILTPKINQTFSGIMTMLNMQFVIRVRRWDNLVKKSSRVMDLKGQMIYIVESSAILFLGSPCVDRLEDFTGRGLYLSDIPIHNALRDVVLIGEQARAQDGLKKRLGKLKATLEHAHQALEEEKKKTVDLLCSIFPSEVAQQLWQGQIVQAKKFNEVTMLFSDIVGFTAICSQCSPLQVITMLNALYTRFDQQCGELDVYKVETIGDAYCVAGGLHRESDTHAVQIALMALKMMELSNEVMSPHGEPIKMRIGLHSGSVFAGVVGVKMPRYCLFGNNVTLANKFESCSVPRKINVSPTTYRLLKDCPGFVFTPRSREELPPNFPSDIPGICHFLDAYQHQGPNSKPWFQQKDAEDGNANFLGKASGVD
T2 sequence (P20595 whole entry): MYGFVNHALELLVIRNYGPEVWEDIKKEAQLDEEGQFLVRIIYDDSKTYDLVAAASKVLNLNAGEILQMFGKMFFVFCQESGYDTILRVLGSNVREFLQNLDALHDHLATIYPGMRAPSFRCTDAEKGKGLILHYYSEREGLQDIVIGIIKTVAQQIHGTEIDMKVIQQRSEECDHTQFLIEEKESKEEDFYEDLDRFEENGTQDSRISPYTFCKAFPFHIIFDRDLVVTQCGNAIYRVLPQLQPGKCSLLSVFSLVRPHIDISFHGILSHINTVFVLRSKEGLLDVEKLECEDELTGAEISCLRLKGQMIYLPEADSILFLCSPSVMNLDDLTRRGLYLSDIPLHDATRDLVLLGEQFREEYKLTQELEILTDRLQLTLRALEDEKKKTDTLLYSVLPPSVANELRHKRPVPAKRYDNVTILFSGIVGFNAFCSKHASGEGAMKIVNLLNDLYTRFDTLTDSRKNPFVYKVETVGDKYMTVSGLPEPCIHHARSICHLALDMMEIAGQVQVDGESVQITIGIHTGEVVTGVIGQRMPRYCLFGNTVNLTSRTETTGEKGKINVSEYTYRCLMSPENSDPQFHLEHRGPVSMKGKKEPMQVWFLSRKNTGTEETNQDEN

Structure (SMILES) | IC50 (saphenous artery) [nM] | Emax (GAL4-PPARα) [%] | EC50 (GAL4-PPARα) [nM] | MEC (minimum effective concentration), sGC-activating activity in the CHO reporter cell (sGC) [nM]
CCOC(c1ccc(Cl)c(NC(=O)[C@H](c2ccc(Cl)cc2)[C@@H](C)C(F)(F)F)c1)C1(C(=O)O)CC1 (single isomer, unassigned) [Example 101] | 685 | 0 | > 10000 | 0.3
[2H]C([2H])([2H])OC(c1ccc(Cl)c(NC(=O)[C@H](c2ccc(Cl)cc2)[C@@H](C)C(F)(F)F)c1)C1(C(=O)O)CC1 (single isomer, unassigned; (+)) [Example 99] | – | 0 | > 10000 | 1
C[C@H]([C@H](C(=O)Nc1cc(CC2(C(=O)O)CC2)ccc1Cl)c1ccc(Cl)c(F)c1)C(F)(F)F [Example 30, (+)-1-(4-chloro-3-{[(2S,3R)-2-(4-chloro-3-fluoro-phenyl)-4,4,4-trifluoro-3-methylbutanoyl]amino}-benzyl)cyclopropanecarboxylic acid] | 606 | 0 | > 10000 | 0.3
C[C@H]([C@H](C(=O)Nc1cc(CC2(C(=O)O)CC2)ccc1Cl)c1ccc(Cl)cc1)C(F)(F)F [Example 50, (+)-1-(4-Chloro-3-{[(2S,3R)-2-(4-chlorophenyl)-4,4,4-trifluoro-3-methylbutanoyl]amino}benzyl)-cyclopropanecarboxylic acid] | 145 | 0 | > 10000 | 0.4
